Our source for the IC50 values is US20230406860A1, “HETEROCYCLIC SPIRO COMPOUNDS AND METHODS OF USE” (AMGEN INC., priority 2020, published 2023).

Assay [1] concerns the target GDP-bound KRAS protein (aa 1-169), containing both G12C and C118A amino acid substitutions (Homo sapiens, UniProt P01116, C118A/G12C). As to the kind of experiment: Coupled nucleotide exchange assay (SOS-mediated, AlphaScreen). In kind it is biochemical. The protocol: Coupled Nucleotide Exchange Assay:
For all subsequent steps, DTT was added to the reaction buffer at a final concentration of 1 mM. […] The assay plates were then read on a plate reader measuring luminescence signal. Signal intensity of compound-containing wells were normalized to DMSO control, and data were analyzed using a 4-parameter logistic model to calculate IC50 values.
(Bead proximity is the source of the signal in Alpha formats.)

The test system of assay [2] is MIA PaCa-2 (human pancreatic carcinoma) cells. The experiment in a line: Cell viability assay (CellTiter-Glo), MIA PaCa-2. As to conditions: 72 h. In kind it is cell-based. The protocol:
(§1) MIA PaCa-2 (human pancreatic carcinoma; ATCC CRL-1420) or A549 (human lung carcinoma; ATCC CCL-185) cells were cultured in RPMI 1640 medium containing 10% fetal bovine serum and 1× penicillin/streptomycin/L-glutamine. Cells were seeded in 384-well plates at a density of 1.67E+04 cells/mL and incubated at 37° C., 5% CO2, overnight. Serially-diluted compound or DMSO was added to the cells, and plates were incubated at 37° C., 5% CO2 for 72 h. Cell viability was measured using a CellTiter-Glo® Luminescent Cell Viability Assay kit (Promega) according to the manufacturer's protocol. The luminescence signal of treated samples was normalized to DMSO control, and data were analyzed using a 4-parameter logistic model to calculate IC50 values.
A general note: Cellular ATP, detected with luciferase, serves as a proxy for viable cell number.

Assay [3] has as its system A549 (human lung carcinoma) cells. As to the kind of experiment: Cell viability assay (CellTiter-Glo), A549. In kind it is cell-based. The following applies: 72 h. The protocol: as §1
Where [4] appears, read: 2 h compound pre-incubation, read-out: Avg 2 h Coupled exchange IC50.
Setting [5] is: 20 h compound pre-incubation (values marked * in Table 6), read-out: Avg 20 h Coupled exchange IC50.

Where two headings read alike, the source gives them in different places.

As a reminder, the IC50 is the concentration that gives 50% inhibition.

Sequence of GDP-bound KRAS protein (aa 1-169), containing both G12C and C118A amino acid substitutions (P01116 1-169 isoform P01116-2 G12C/C118A): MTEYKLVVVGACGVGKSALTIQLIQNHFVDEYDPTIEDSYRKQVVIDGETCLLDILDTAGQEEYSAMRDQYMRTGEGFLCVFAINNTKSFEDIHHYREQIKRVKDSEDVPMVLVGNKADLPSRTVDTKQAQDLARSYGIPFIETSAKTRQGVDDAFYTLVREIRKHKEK

For `C=CC(=O)N1CC2(C1)CN(c1nc3c(c(N[C@H](CC(=O)NC)CC(C)C)n1)CCC(C)C3)CC2F` (stereo partly drawn) [Example 1-28, (3S)-3-((2-(8-fluoro-2-(2-propenoyl)-2,6-diazaspiro[3.4]octan-6-yl)-7-methyl-5,6,7,8-tetrahydro-4-quinazolinyl)amino)-N,5-dimethylhexanamide], the figures for the IC50 in assay [1] (setting [4]), in assay [2] and in assay [3] were 0.196 µM, 0.189 µM and above 5 µM, respectively.

As for `C=CC(=O)N1CC2(CCN(c3nc(N[C@H](CC(=O)NC)CC(C)C)c4ccccc4n3)C2)C1` [Example 1-5, (3S)-N,5-dimethyl-3-((2-(2-(2-propenoyl)-2,6-diazaspiro[3.4]octan-6-yl)-4-quinazolinyl)amino)hexanamide], the IC50 in assay [1] (setting [4]) turned out to be 1.1 µM; in assay [2], 1.23 µM; in assay [3] it was 18.4 µM.

For `C=CC(=O)N1CC2(CCN(c3nc(N[C@H](CC(=O)NC)CC(C)C)c4ccncc4n3)C2)C1` [Example 1-56], the IC50 in assay [1] (setting [4]) is 4.84 µM; in assay [2], above 5 µM; in assay [3] it was above 25 µM.

As for `C=C(C(=O)N1CC2(CCN(c3nc(N[C@H](CC(=O)NC)CC(C)C)c4ccc(C)cc4n3)C2)C1)C(F)(F)F` [Example 1-58, (3S)-N,5-dimethyl-3-((7-methyl-2-(2-(2-(trifluoromethyl)-2-propenoyl)-2,6-diazaspiro[3.4]octan-6-yl)-4-quinazolinyl)amino)hexanamide], the values for the half-inhibitory concentration (IC50) in assay [1] (setting [4]), in assay [2] and in assay [3] were 0.403 µM, 1.84 µM and 13.5 µM, respectively.

With `C=CC(=O)N1CC2(C1)CN(c1nc(N[C@H](CC(=O)NC)CC(C)C)c3ccccc3n1)CC2(F)F` [Example 1-18, (3S)-3-((2-(8,8-difluoro-2-(2-propenoyl)-2,6-diazaspiro[3.4]octan-6-yl)-4-quinazolinyl)amino)-N,5-dimethylhexanamide], the IC50 in assay [1] (setting [4]) was found to be 0.334 µM; in assay [2] it was 0.971 µM; in assay [3], 6.25 µM.

`C=CC(=O)N1CC2(CCN(c3nc(N[C@H](CC(=O)NC)CC(C)C)c4ccc(C(F)(F)F)cc4n3)C2)C1` [Example 1-35, (3S)-N,5-dimethyl-3-((2-(2-(2-propenoyl)-2,6-diazaspiro[3.4]octan-6-yl)-7-(trifluoromethyl)-4-quinazolinyl)amino)hexanamide]: the figures for the IC50 in assay [1] (setting [4]), in assay [2] and in assay [3] were 0.142 µM, 0.179 µM and 10.5 µM, respectively.

`C=CC(=O)N1CC2(CCN(c3nc4c(c(N[C@H](Cc5ccon5)CC(C)C)n3)CCC(C)(C)C4)C2)C1` [Example 1-48, 1-(6-(7,7-dimethyl-4-(((2S)-4-methyl-1-(1,2-oxazol-3-yl)-2-pentanyl)amino)-5,6,7,8-tetrahydro-2-quinazolinyl)-2,6-diazaspiro[3.4]octan-2-yl)-2-propen-1-one]: the half-maximal inhibitory concentration (IC50) in assay [1] (setting [4]) is 0.053 µM; in assay [2], 0.049 µM; in assay [3] it was 15.8 µM.

Take `C=CC(=O)N1CC2(CCN(c3nc4c(c(N[C@@H](CC(=O)NC)c5cccc(C#N)c5)n3)CCCC4)C2)C1` (single isomer, unassigned) [Example 1-21-1]: the values for the IC50 in assay [1] (setting [4]), in assay [2] and in assay [3] were 9.085 µM, 10.5 µM and above 25 µM, respectively.

For the compound `C=CC(=O)N1CC2(CCN(c3nc(N[C@H](CC(=O)NC)CC(C)C)c4ncc(-c5nccs5)cc4n3)C2)C1` [Example 1-36, (3S)-N,5-dimethyl-3-((2-(2-(2-propenoyl)-2,6-diazaspiro[3.4]octan-6-yl)-7-(1,3-thiazol-2-yl)pyrido[3,2-d]pyrimidin-4-yl)amino)hexanamide], the half-maximal inhibitory concentration (IC50) in assay [1] (setting [4]) was 0.023 µM; in assay [2], 0.379 µM; in assay [3] it was above 5 µM.

Turning to `C=CC(=O)N1CC2(CCN(c3nc4c(c(N[C@H](CC(=O)NC)CC(C)C)n3)COC4)C2)C1` [Example 1-13, (3S)-N,5-dimethyl-3-((2-(2-(2-propenoyl)-2,6-diazaspiro[3.4]octan-6-yl)-5,7-dihydrofuro[3,4-d]pyrimidin-4-yl)amino)hexanamide], the IC50 is 5.85 µM in assay [1] (setting [5]), above 5 µM in assay [2] and above 5 µM in assay [3].

In the case of `C=CC(=O)N1CC2(CCN(c3nc(N[C@H](CC(=O)NC)CC(C)C)c4ncccc4n3)C2)C1` [Example 1-37, (3S)-N,5-dimethyl-3-((2-(2-(2-propenoyl)-2,6-diazaspiro[3.4]octan-6-yl)pyrido[3,2-d]pyrimidin-4-yl)amino)hexanamide], the figures for the half-inhibitory concentration (IC50) in assay [1] (setting [4]), in assay [2] and in assay [3] were 0.743 µM, 0.632 µM and above 25 µM, respectively.

Consider `C=CC(=O)N1CC2(CCN(c3nc4c(c(N[C@H](Cc5nnc(C)o5)CC(C)C)n3)CCC(C)(C)C4)C2)C1` [Example 1-52, 1-(6-(7,7-dimethyl-4-(((2S)-4-methyl-1-(5-methyl-1,3,4-oxadiazol-2-yl)-2-pentanyl)amino)-5,6,7,8-tetrahydro-2-quinazolinyl)-2,6-diazaspiro[3.4]octan-2-yl)-2-propen-1-one], for which the IC50 in assay [1] (setting [4]) was 0.039 µM; in assay [2], 1.41 µM; in assay [3] it was above 5 µM.

For `C=CC(=O)N1CC2(CCN(c3nc4c(c(N[C@H](CC(=O)NC)CC(C)C)n3)CCC4)C2)C1` [Example 1-4, (3S)-N,5-dimethyl-3-((2-(2-(2-propenoyl)-2,6-diazaspiro[3.4]octan-6-yl)-6,7-dihydro-5H-cyclopenta[d]pyrimidin-4-yl)amino)hexanamide], the figures for the IC50 in assay [1] (setting [4]), in assay [2] and in assay [3] were 2.37 µM, 2.59 µM and above 5 µM, respectively.

With `C=CC(=O)N1CC2(CCN(c3nc4c(c(N[C@H](Cc5nnc(C)s5)CC(C)C)n3)CCC(C)(C)C4)C2)C1` [Example 1-51, 1-(6-(7,7-dimethyl-4-(((2S)-4-methyl-1-(5-methyl-1,3,4-thiadiazol-2-yl)-2-pentanyl)amino)-5,6,7,8-tetrahydro-2-quinazolinyl)-2,6-diazaspiro[3.4]octan-2-yl)-2-propen-1-one], the IC50 in assay [1] (setting [4]) was 0.05 µM; in assay [2], 3.54 µM; in assay [3], above 5 µM.

As to `C=CC(=O)N1CC2(CCN(c3nc(N[C@H](CC(=O)NC)CC(C)C)c4cc(C)ccc4n3)C2)C1` [Example 1-41, (3S)-N,5-dimethyl-3-((6-methyl-2-(2-(2-propenoyl)-2,6-diazaspiro[3.4]octan-6-yl)-4-quinazolinyl)amino)hexanamide], the half-maximal inhibitory concentration (IC50) in assay [1] (setting [4]) was 0.779 µM; in assay [2] it was 1.23 µM; in assay [3], above 25 µM.

With `C=CC(=O)N1CC2(CCN(c3nc4c(c(N[C@H](Cc5nnc(C)o5)CC(C)C)n3)CCCC4)C2)C1` [Example 1-22, 1-(6-(4-(((2S)-4-methyl-1-(5-methyl-1,3,4-oxadiazol-2-yl)-2-pentanyl)amino)-5,6,7,8-tetrahydro-2-quinazolinyl)-2,6-diazaspiro[3.4]octan-2-yl)-2-propen-1-one], the IC50 is 0.83 µM in assay [1] (setting [4]), 0.279 µM in assay [2] and above 25 µM in assay [3].

In the case of `C=CC(=O)N1CC2(CCN(c3nc4c(c(N[C@H](Cc5nc(C)no5)CC(C)C)n3)CCC(C)(C)C4)C2)C1` [Example 1-39, 1-(6-(7,7-dimethyl-4-(((2S)-4-methyl-1-(3-methyl-1,2,4-oxadiazol-5-yl)-2-pentanyl)amino)-5,6,7,8-tetrahydro-2-quinazolinyl)-2,6-diazaspiro[3.4]octan-2-yl)-2-propen-1-one], the half-inhibitory concentration (IC50) was 0.685 µM in assay [1] (setting [4]), 0.79 µM in assay [2] and above 25 µM in assay [3].

For the compound `C=CC(=O)N1CC2(CCN(c3nc4c(c(N[C@H](CC(=O)NC)CC(C)C)n3)CCCC4)C2)C1` [Example 1-1, (S)-3-((2-(2-acryloyl-2,6-diazaspiro[3.4]octan-6-yl)-5,6,7,8-tetrahydroquinazolin-4-yl)amino)-N,5-dimethylhexanamide], the IC50 in assay [1] (setting [4]) is 0.702 µM; in assay [2], 0.887 µM; in assay [3], above 25 µM.

Consider `C=CC(=O)N1CC2(CCN(c3nc4c(c(N[C@@H](CC(C)C)C(=O)NC)n3)CCCC4)C2)C1` [Example 1-60, (S)-2-((2-(2-acryloyl-2,6-diazaspiro[3.4]octan-6-yl)-5,6,7,8-tetrahydroquinazolin-4-yl)amino)-N,4-dimethylpentanamide], for which the half-inhibitory concentration (IC50) in assay [1] (setting [4]) is 8.28 µM; in assay [2], 7.06 µM; in assay [3] it was 17.9 µM.

Turning to `C=CC(=O)N1CC2(CCN(c3nc(N[C@H](CC(=O)NC)CC(C)C)c4ncsc4n3)C2)C1` [Example 1-11, (3S)-N,5-dimethyl-3-((5-(2-(2-propenoyl)-2,6-diazaspiro[3.4]octan-6-yl)[1,3]thiazolo[5,4-d]pyrimidin-7-yl)amino)hexanamide], the figures for the IC50 in assay [1] (setting [5]), in assay [2] and in assay [3] were 0.395 µM, above 5 µM and above 5 µM, respectively.

In the case of `C=CC(=O)N1CC2(CCN(c3nc4c(c(N[C@H](Cc5cc(C)no5)CC(C)C)n3)CCC(C)(C)C4)C2)C1` [Example 1-49, 1-(6-(7,7-dimethyl-4-(((2S)-4-methyl-1-(3-methyl-1,2-oxazol-5-yl)-2-pentanyl)amino)-5,6,7,8-tetrahydro-2-quinazolinyl)-2,6-diazaspiro[3.4]octan-2-yl)-2-propen-1-one], the half-maximal inhibitory concentration (IC50) stood at 0.093 µM in assay [1] (setting [4]), 0.218 µM in assay [2] and 11.6 µM in assay [3].
